Consider eight compounds from patent US5242924A, “Tetrazolyl-(phenoxy and phenoxyalkyl)-piperidinylpyridazines as antiviral agents” (Sterling Winthrop Inc., priority 1992, dated 1993).

The assay relates to human rhinovirus (HRV) serotypes HRV-2, -1A, 1B, -6, -14, -21, -22, -15, -25, -30, -50, -67, -89, -86 and -41. Description: standard plaque reduction assay, panel of human rhinovirus serotypes in HeLa (Ohio) cells. The class given is cell-based. The following applies: MIC = 50% plaque reduction, N serotypes: 15 (Ex. 1, 2, 4, 7, 8), 13 (Ex. 3), 2 (Ex. 5, 6); for MIC50 (Rhinovirus): concentration required to inhibit 50% of the tested serotypes; for MIC80 (Rhinovirus): concentration required to inhibit 80% of the tested serotypes. On the procedure:
The MIC values were determined by a standard plaque reduction assay as follows: HeLa (Ohio) cells in monolayers were infected at a concentration of virus to give approximately 80 plaques per monolayer in the virus control (no drug present). The compound to be tested was serially diluted and included in the agar-medium overlay and in some cases, during the adsorption period as well. The MIC was determined to be that concentration of compound which reduced the number of plaques by 50% with respect to the untreated virus control.
In the standard test procedure, the compounds were tested against a panel of fifteen human rhinovirus (HRV) serotypes, namely HRV-2, -1A, 1B, -6, -14, -21, -22, -15, -25, -30, -50, -67, -89, -86 and -41. The MIC value for each rhinovirus serotype was determined, and the efficacy of each compound was determined in terms of MIC50 and MIC80 values, which is the concentration of the compound required to inhibit 50% and 80%, respectively, of the tested serotypes.
The following Table gives the testing results with the compounds of the invention. The number of serotypes (N) is indicated after the MIC80 figure.
Background: In a plaque reduction assay, fewer plaques than in the control indicate reduced infectivity or spread.

≈ marks a conversion by molar mass, not a printed value.

With `CCc1ccc(N2CCC(COc3ccc(-c4nnn(C)n4)cc3)CC2)nn1` [Ex. 1], the MIC50 (Rhinovirus) was 13.2 µg/mL (≈ 34.7 µM) and the MIC80 (Rhinovirus) came to 0.281 µg/mL (≈ 0.742 µM).

In the case of `Cc1ccc(N2CCC(COc3ccc(-c4nnn(C)n4)cc3)CC2)nn1` [Ex. 2], the MIC50 (Rhinovirus) was 13.3 µg/mL (≈ 36.5 µM) and the MIC80 (Rhinovirus) was found to be 0.141 µg/mL (≈ 0.386 µM).

Compound `CCCc1ccc(N2CCC(Oc3ccc(-c4nnn(C)n4)cc3)CC2)nn1` [Ex. 3] had an MIC50 (Rhinovirus) of 15.7 µg/mL (≈ 41.4 µM) and an MIC80 (Rhinovirus) of 1.82 µg/mL (≈ 4.8 µM).

`Cc1ccc(N2CCC(COc3c(C)cc(-c4nnn(C)n4)cc3C)CC2)nn1` [Ex. 4] had an MIC50 (Rhinovirus) of 20.1 µg/mL (≈ 51.2 µM) and an MIC80 (Rhinovirus) of 1.48 µg/mL (≈ 3.77 µM).

For `Cc1ccc(N2CCC(Oc3c(C)cc(-c4nnn(C)n4)cc3C)CC2)nn1` [Ex. 5], the MIC50 (Rhinovirus) is 0.92 µg/mL (≈ 2.42 µM) and the MIC80 (Rhinovirus) came to 1.8 µg/mL (≈ 4.74 µM).

Consider `Cc1ccc(N2CCC(Oc3ccc(-c4nnn(C)n4)cc3)CC2)nn1` [Ex. 6], for which the MIC50 (Rhinovirus) was 0.27 µg/mL (≈ 0.768 µM) and the MIC80 (Rhinovirus) was determined as 0.52 µg/mL (≈ 1.48 µM).

The compound `Cc1ccc(N2CCC(CCOc3ccc(-c4nnn(C)n4)cc3)CC2)nn1` [Ex. 7] displayed an MIC50 (Rhinovirus) of 6.64 µg/mL (≈ 17.5 µM) and an MIC80 (Rhinovirus) of 0.04 µg/mL (≈ 0.105 µM).

Compound `Cc1ccc(N2CCC(CCOc3c(C)cc(-c4nnn(C)n4)cc3C)CC2)nn1` [Ex. 8] returned an MIC50 (Rhinovirus) of 16.8 µg/mL (≈ 41.3 µM) and an MIC80 (Rhinovirus) of 0.66 µg/mL (≈ 1.62 µM).
